Laboratory results reported in US20050239733A1, “Sequence requirements for inhibitory oligonucleotides” (Coley Pharmaceutical GmbH, priority 2003, published 2005).

Target: T1, human TLR9 (Homo sapiens, UniProt Q9NR96)
T1 sequence (Q9NR96 26-1032): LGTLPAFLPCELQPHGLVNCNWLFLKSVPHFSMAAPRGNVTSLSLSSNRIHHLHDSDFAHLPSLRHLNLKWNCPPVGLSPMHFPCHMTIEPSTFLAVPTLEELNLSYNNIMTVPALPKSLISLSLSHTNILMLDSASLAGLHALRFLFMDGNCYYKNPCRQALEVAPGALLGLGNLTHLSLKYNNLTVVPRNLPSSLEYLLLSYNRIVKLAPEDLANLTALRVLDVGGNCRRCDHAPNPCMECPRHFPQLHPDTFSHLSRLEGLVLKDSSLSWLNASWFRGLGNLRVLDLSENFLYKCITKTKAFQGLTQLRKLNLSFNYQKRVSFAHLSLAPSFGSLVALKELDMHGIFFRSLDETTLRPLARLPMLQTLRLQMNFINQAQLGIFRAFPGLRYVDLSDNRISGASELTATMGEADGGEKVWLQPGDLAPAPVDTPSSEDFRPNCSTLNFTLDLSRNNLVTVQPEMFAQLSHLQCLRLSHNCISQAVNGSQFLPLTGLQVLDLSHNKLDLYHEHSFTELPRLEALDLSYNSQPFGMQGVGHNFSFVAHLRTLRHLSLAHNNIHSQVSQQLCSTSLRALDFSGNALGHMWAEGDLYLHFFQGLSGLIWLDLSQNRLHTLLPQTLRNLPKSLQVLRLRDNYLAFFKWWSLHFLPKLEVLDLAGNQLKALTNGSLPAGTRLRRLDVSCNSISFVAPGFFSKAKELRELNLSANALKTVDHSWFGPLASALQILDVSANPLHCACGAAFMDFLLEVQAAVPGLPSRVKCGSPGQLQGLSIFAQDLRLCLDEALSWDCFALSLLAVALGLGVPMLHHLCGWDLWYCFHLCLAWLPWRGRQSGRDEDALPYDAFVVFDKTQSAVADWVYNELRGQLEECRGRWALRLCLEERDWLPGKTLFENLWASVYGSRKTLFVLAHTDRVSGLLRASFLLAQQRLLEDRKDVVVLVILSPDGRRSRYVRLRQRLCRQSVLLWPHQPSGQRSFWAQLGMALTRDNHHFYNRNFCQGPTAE
Assay: Inhibition of CpG ODN 2006-mediated NF-κB-luciferase activation in hTLR9-LUC-293 cells
Conditions: 0.156 μM CpG ODN 2006, increasing ODN, 16 h

| Sequence | inhibition of hTLR9 (CpG ODN 2006-mediated luciferase activity), in words |
| --- | --- |
| NNNNNNNNNNNNNN [ODN 605, reference compound] | not |
| TCCTGGCGGGGAA (DNA, backbone and methylation of C not given here) [ODN 969] | inhibited |

Same assay, conditions: Table 1 (length b / Spacer 18 variants); equimolar 0.156 μM CpG ODN 2006 and inhibitory ODN

| Sequence | Percent 2006 Activity [%] |
| --- | --- |
| TCCTGLGGGGAAGT (Spacer 18 hexaethyleneglycol spacer, as printed in the source, key not given here) [ODN 493] | 54 |
| TCCTGLLGGGGAAGT (two Spacer 18 hexaethyleneglycol spacers, as printed in the source, key not given here) [ODN 492] | 67 |
| TCCTGTGTGTGTGTCGGGGAAGT (listed as DNA, chemistry not given here) [ODN 494] | 47 |
| TCCTGTGTGTGTGTGTCGGGGAAGT (listed as DNA, chemistry not given here) [ODN 495] | 34 |

Same assay, conditions: Table 2 (5′ CC replaced by other dinucleotides); equimolar 0.156 μM CpG ODN 2006 and inhibitory ODN

| Sequence | Percent 2006 Activity [%] |
| --- | --- |
| TAATGGCGGGGAAGT (DNA, backbone and methylation of C not given here) [ODN 959] | 92 |
| TACTGGCGGGGAAGT (DNA, backbone and methylation of C not given here) [ODN 074] | 132 |
| TAGTGGCGGGGAAGT (DNA, backbone and methylation of C not given here) [ODN 441] | 105 |
| TATTGGCGGGGAAGT (DNA, backbone and methylation of C not given here) [ODN 442] | 101 |
| TCATGGCGGGGAAGT (DNA, backbone and methylation of C not given here) [ODN 073] | 114 |
| TCGTGGCGGGGAAGT (DNA, backbone and methylation of C not given here) [ODN 435] | 77 |
| TCTTGGCGGGGAAGT (DNA, backbone and methylation of C not given here) [ODN 437] | 89 |
| TGGTGGCGGGGAAGT (DNA, backbone and methylation of C not given here) [ODN 436] | 90 |
| TTATGGCGGGGAAGT (DNA, backbone and methylation of C not given here) [ODN 439] | 91 |
| TTCTGGCGGGGAAGT (DNA, backbone and methylation of C not given here) [ODN 440] | 90 |
| TTGTGGCGGGGAAGT (DNA, backbone and methylation of C not given here) [ODN 438] | 95 |
| TTTTGGCGGGGAAGT (DNA, backbone and methylation of C not given here) [ODN 072] | 121 |

Same assay, conditions: Table 3 (nucleotides flanking 5′ CC, truncations); equimolar 0.156 μM CpG ODN 2006 and inhibitory ODN

| Sequence | Percent 2006 Activity [%] |
| --- | --- |
| TCCAGGCGGGGAAGT (DNA, backbone and methylation of C not given here) [ODN 157] | 14 |
